For one assay, the system named is HIV-1 with BG505 Env. In words: microbe, parasite or virus in culture. In kind it is cell-based. As to conditions: Human immunodeficiency virus 1; Cf2Th-CD4/CCR5 target cells, 48 hours, luciferase; means and standard errors of four experiments; read-out: 50% inhibitory concentration (IC50), BG505.
Assay [1] concerns HIV-1AD8 Env on VLPs. In words: Reversibility of compound effects on VLP Env conformation (19b antibody recognition after washing). The method, then: Characterization of VLP-associated Env: To prepare VLPs with HIV-1AD8 Env, 150-mm dishes of 30-40% confluent A549-Gag/Env cells were seeded and, on the following day, treated with 2 μg/ml doxycycline. Approximately 72 hours after induction, cell supernatants were harvested and cleared by low-speed centrifugation (500×g for 15 minutes at 4° C.) and 0.45-μ filtration. VLPs were pelleted by centrifugation at 100,000×g for one hour at 4° C. The resuspended VLP preparation was clarified by low-speed centrifugation. BMS-806 and compounds described herein were added to the clarified VLP-containing suspensions. In some cases, the VLP-compound mixtures were irradiated with a 100-watt, 365-nm ultraviolet (UV) lamp for 10 minutes at room temperature. For all UV studies, exposure of the samples to visible light was minimized.
For studies of the reversibility of effects, the compounds were added to the VLPs and mixed for several seconds at room temperature. Then the VLPs were pelleted (20,000×g for 30 minutes at 4° C.) twice, washing with 1.5 ml PBS with 2% DMSO. The pelleted VLPs were resuspended in 1 ml PBS with 2% DMSO and incubated at room temperature for various lengths of time (20 minutes—3 weeks). Control VLPs were incubated in the continued presence of the compounds at room temperature for the same length of time. Then the VLPs were pelleted (20,000×g for 30 minutes at 4° C.) and the pellet incubated with 1.5% Triton X-100 for 30 minutes at 4° C. The VLP lysates were centrifuged (20,000×g for 30 minutes at 4° C.) and the supernatants were incubated with antibodies (10 μg/ml) in a 50-μl volume with 25 mg/ml of Protein A-Sepharose beads for one hour at 4° C. The beads were pelleted (1000 rpm for 1 minute at room temperature) and washed three times with 1 ml wash buffer with 1% Triton X-100. The beads were suspended in NuPAGE LDS Sample Buffer (ThermoFisher), boiled and analyzed by Western blot, as described above.
The BMS-806-induced decrease in binding of the 19b anti-V3 antibody can be used as an indicator of BMS-806-Env binding, allowing estimation of the stability of the Env-compound complex. BMS-806 and BMS-529 were incubated with the HIV-1AD8 Env on VLPs. The VLPs were then washed and incubated at room temperature for various lengths of time in a buffer with (+/+) or without (+/−) compound. After this incubation, Env conformation was assessed using the 19b anti-V3 antibody, the 2G12 antibody (the binding of which is not affected by BMS-806), and a negative control human immunoglobulin (hIgG) preparation. 19b recognition of Env in the washed samples (+/−) was compared with those in the samples continuously incubated with the compound (+/+) and the untreated samples (−) (FIG. 4). […] Despite this slow rate of dissociation of compounds described herein from Env, the binding and the consequent effects of these compounds on Env conformation appear to be reversible.

Assay [2] concerns HIV-1 with JR-FL S375W Env. In kind it is cell-based. Conditions: Cf2Th-CD4/CCR5 target cells, 48 hours, luciferase; read-out: 50% inhibitory concentration (IC50), JR-FL S375W.
The subject of assay [3] is envelope glycoproteins of the amphotropic murine leukemia virus (AMLV). In words: microbe, parasite or virus in culture. It is filed as cell-based. Conditions: Cf2Th-CD4/CCR5 target cells, 48 hours, luciferase, specificity control, read-out: 50% inhibitory concentration (IC50), AMLV.
Assay [4] has as its system HIV-1AD8 Env on VLPs. In words: Shedding of gp120 from VLP Env. Conditions: 4° C. and 37° C., 4 days, no detergent. Here is the method:
Shedding of gp120 from VLP Env: The effect of compounds on the spontaneous shedding of gp120 from VLP Env was evaluated. VLPs with the wild-type HIV-1AD8 Env were prepared from the supernatants of A549-Gag/Env cells, as described above. The VLPs were suspended in PBS, to which was added either DMSO or a compound described herein. An aliquot of the VLP suspension in PBS/DMSO was processed as described below to serve as a Day 0 control. The VLP suspensions were incubated for 4 days at 4° C., room temperature or 37° C. (with gentle rocking). Then the VLPs were pelleted (100,000×g for 30 min at 4° C.). The pellets and supernatants were boiled in LDS sample buffer and analyzed by Western blotting with either 1:2000 goat anti-gp120 polyclonal antibody (ThermoFisher) and HRP-conjugated rabbit anti-goat IgG antibody, or with 1:5000 rabbit anti-Gag p55/p24/p17 antibody (Abcam) and HRP-conjugated goat anti-rabbit IgG antibody (Abcam).

Another assay concerns HIV-1 with HIV-1AD8 Env. In words: microbe, parasite or virus in culture. In kind it is cell-based. As to conditions: Human immunodeficiency virus 1; Cf2Th-CD4/CCR5 target cells, 48 hours, luciferase; means and standard errors of four experiments; read-out: 50% inhibitory concentration (IC50), AD8.
Assay [5] relates to HIV-1 with HIV-1JR-FL Env. In words: microbe, parasite or virus in culture. As to conditions: Human immunodeficiency virus 1; Cf2Th-CD4/CCR5 target cells, 48 hours, luciferase; means and standard errors of four experiments; read-out: 50% inhibitory concentration (IC50), JR-FL. In kind it is cell-based.

On to `COc1ccc(-c2ccc(CNC(=O)c3c(F)c(F)c(N=[N+]=[N-])c(F)c3F)o2)c2[nH]cc(C(=O)C(=O)N3CCN(C(=O)c4ccccc4)CC3)c12` [AEG-II-168], for which the IC50 is 0.22 nM in the assay on HIV-1 with BG505 Env; more than 100 nM in assay [2]; more than 100 nM in assay [3]; 2.8 nM in the assay on HIV-1 with HIV-1AD8 Env; 1.5 nM in assay [5]. Moreover, the “Durability / reversibility of Env conformational effects (in words)” value in the assay on HIV-1AD8 Env on VLPs [1] (after washing) is “at least three weeks”. Also, in the assay on HIV-1AD8 Env on VLPs [4], the “Spontaneous shedding of gp120 into the VLP supernatant” value is listed as “decreased the shedding of gp120”.
For `COc1ccnc2[nH]cc(C(=O)C(=O)N3CCN(C(=O)c4ccccc4)C[C@H]3C)c12` [BMS-806, reference compound], the IC50 in the assay with HIV-1 with BG505 Env was 0.8 nM; in assay [2] it was more than 100 nM; in assay [3] it was more than 100 nM; with HIV-1 with HIV-1AD8 Env, 0.4 nM; in assay [5], 1.6 nM. Further, the “Conformational effect on 19b binding after washing” value in the assay with HIV-1AD8 Env on VLPs [1] (twenty-four hours after washing, room temperature) was “much less evident”. Further, the “Spontaneous shedding of gp120 into the VLP supernatant” value in the assay on HIV-1AD8 Env on VLPs [4] was “decreased the shedding of gp120”.

Source of the values: patent US12729194B2, “Compounds for the treatment of human immunodeficiency virus” (priority 2019, dated 2026).
